# Results published in PubChem BioAssay AID1259375 (The Scripps Research Institute Molecular Screening Center, 2018).
# Active and inactive are the calls of the source. No rule for the calls is given here.
# Biological target: Microphthalmia-associated transcription factor (Homo sapiens) (UniProt O75030)
# Test: MITF inhibitors by FRET titration, dose response, biochemical, high throughput (AID 1259375);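 also: FRET between CFP-tagged and YFP-tagged MITF protein partners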
# Conditions: FRET biochemical assay, MITF inhibition
# Sequence of Microphthalmia-associated transcription factor (Homo sapiens) (O75030 whole entry, looked up): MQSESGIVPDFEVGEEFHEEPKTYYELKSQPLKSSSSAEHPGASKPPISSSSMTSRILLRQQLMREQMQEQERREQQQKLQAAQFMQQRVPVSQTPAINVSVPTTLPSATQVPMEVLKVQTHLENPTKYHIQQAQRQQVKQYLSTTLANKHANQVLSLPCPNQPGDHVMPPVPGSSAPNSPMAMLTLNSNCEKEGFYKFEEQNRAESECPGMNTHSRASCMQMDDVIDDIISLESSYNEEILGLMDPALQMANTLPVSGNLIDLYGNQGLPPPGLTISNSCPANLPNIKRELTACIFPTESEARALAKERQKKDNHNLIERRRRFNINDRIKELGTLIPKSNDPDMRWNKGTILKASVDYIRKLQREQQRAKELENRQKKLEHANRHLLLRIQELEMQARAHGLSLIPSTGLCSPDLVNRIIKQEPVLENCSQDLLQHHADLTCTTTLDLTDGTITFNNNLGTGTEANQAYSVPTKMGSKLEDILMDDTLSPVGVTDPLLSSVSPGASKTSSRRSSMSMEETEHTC
row,SMILES,IC50
1,O=C1N[C@@H](Cc2ccc(O)cc2)C(=O)N2CCN(C(=O)NCc3ccccc3)C[C@H]12,> 6.48 µM (inactive)
2,O=C1N[C@@H](Cc2ccc(O)cc2)C(=O)N2CCN(C(=O)NC3CCCCC3)C[C@H]12,> 6.48 µM (inactive)
3,Cc1[nH][nH]c(=O)c1C(c1ccc([N+](=O)[O-])o1)c1c(C)[nH][nH]c1=O,> 6.48 µM (inactive)
4,Cc1ccc(C)n1C(Cc1c[nH]c2ccccc12)C(=O)O (stereo not drawn),> 6.48 µM (inactive)
5,CCN(CC)c1ncnc2c1ncn2[C@@H]1O[C@H](COP(=O)(O)OP(=O)(O)C(Br)(Br)P(=O)(O)O)C(O)[C@@H]1O (stereo partly drawn),> 6.48 µM (inactive)
6,CCS(=O)(=O)NCC(c1cccs1)S(=O)(=O)c1ccc(C)cc1 (stereo not drawn),> 6.6 µM (inactive)
7,O=C(/C=C/c1ccco1)C1=C(O)C(=O)N(CCCN2CCOCC2)C1c1ccco1 (stereo not drawn),> 6.48 µM (inactive)
8,C/C(=N\NC(=O)Cc1cc(=O)[nH][nH]1)c1ccco1,> 6.48 µM (inactive)
9,NC(=O)COC(=O)c1cc2c(s1)CCC2,> 6.91 µM (inactive)
10,C=CCNC(=O)COC(=O)c1cc(-c2ccco2)nc2ccccc12,> 6.94 µM (inactive)
11,c1coc(CNc2ccc3ncc(-c4ccco4)n3n2)c1,> 6.48 µM (inactive)
12,CN(C)[C@@H]1C(=O)C(C(=O)NCN2CCCC2)=C(O)[C@@]2(O)C(=O)C3=C(O)c4c(O)cccc4[C@@](C)(O)[C@H]3C[C@@H]12,> 6.48 µM (inactive)
13,O=C(NC1CCCCC1)N1CCN2C(=O)[C@@H]3CSCN3C(=O)[C@H]2C1,> 6.48 µM (inactive)
14,CN(C)/C=C/C=C/C(=O)c1cccc(C(=O)/C=C/C=C/N(C)C)c1O,> 6.48 µM (inactive)
15,O=C(O)c1coc(CNC(=O)c2cocc2C(=O)O)c1,> 6.48 µM (inactive)
16,O=C(O)c1cccc(-n2cccc2/C=C2/NC(=O)N(c3ccc(Cl)cc3)C2=O)c1,> 6.48 µM (inactive)
17,O=C(O)c1cc(S(=O)(=O)Nc2ccc3cn[nH]c3c2)ccc1O,> 7 µM (inactive)
18,O=C(O)c1ccccc1-c1ccc(/C=C/[N+](=O)[O-])o1,> 6.48 µM (inactive)
19,CN(N=O)c1cc(O)ccc1O,> 6.48 µM (inactive)
20,NC(=O)n1c(CCC(=O)O)nc2sc3c(c2c1=O)CCC3,> 6.75 µM (inactive)
21,CC(=O)CC1=C(C(=O)O)N2C(=O)C(N)C2SC1 (stereo not drawn),> 6.48 µM (inactive)
22,O=C(OCN1C(=O)c2ccccc2C1=O)c1cc2c(s1)CCC2,> 7.13 µM (inactive)
23,O=C(NCCO)c1cccc(-c2cccs2)c1,> 8.06 µM (inactive)
24,CSc1ccc(C(=O)O)s1,> 10.2 µM (inactive)

row,SMILES,IC50
1,Cc1ccc(CCC(=O)Nc2ccc(-c3cn4c5c(nnc4n3)CCCC5)cc2)o1,> 6.48 µM (inactive)
2,CC(C)[C@@H]1NC(=O)[C@H]2CN(C(=O)NC3CCCCC3)CCN2C1=O,> 6.48 µM (inactive)
3,CN1CCN(C(=O)c2ccc(-c3nc(Nc4ccccc4)c4ncn(C5CCCCC5)c4n3)cc2)CC1,> 7.63 µM (inactive)
4,C[C@H]1C(=O)N2CCN(C(=O)NC3CCCCC3)C[C@@H]2C(=O)N1C,> 6.48 µM (inactive)
5,O=C(/C=C/c1ccc(-c2cccc(C(F)(F)F)c2)o1)c1ccco1,> 6.63 µM (inactive)
6,Clc1ccc(CN2CCN(Cc3c[nH]c4ccccc34)CC2)cc1,> 5.86 µM (inactive)
7,O=C(O)c1cc(-n2cccc2)ccc1Cl,> 6.48 µM (inactive)
8,CN1CCN(CCNC(=O)c2cccc(CN(C(=O)c3nc4ccc(-c5cn[nH]c5)cc4s3)C3CC3)c2)CC1,> 6.48 µM (inactive)
9,O=C(Nc1ccc(C(=O)Nc2ccc(C(=O)Nc3ccc(S(=O)(=O)O)c4cc(S(=O)(=O)O)cc(S(=O)(=O)O)c34)cc2)cc1)Nc1ccc(C(=O)Nc2ccc(C(=O)Nc3ccc(S(=O)(=O)O)c4cc(S(=O)(=O)O)cc(S(=O)(=O)O)c34)cc2)cc1,> 6.48 µM (inactive)
10,C[C@@H](OCc1ccccc1)[C@@H]1NC(=O)[C@H]2CN(C(=O)NCc3ccccc3)CCN2C1=O,> 6.48 µM (inactive)
11,O=C(O)C1CC=CCC1C(=O)Nc1nncs1 (stereo not drawn),> 6.48 µM (inactive)
12,O=C(COC(=O)/C=C/c1ccco1)NCc1ccco1,> 6.6 µM (inactive)
13,COc1cccc(CN2CCN(C(=O)c3ccc(F)cc3)CC2)c1,> 5.27 µM (inactive)
14,N#CC(C#N)=Cc1cccn1-c1ccc(C(=O)O)cc1,> 6.48 µM (inactive)
15,Cc1cc(N=Cc2ccc([N+](=O)[O-])o2)ccc1S(=O)(=O)O,> 6.48 µM (inactive)
16,O=C(COC(=O)/C=C/c1ccco1)COC(=O)/C=C/c1ccco1,> 7.07 µM (inactive)
17,Cc1ccc(O)c(NC(=S)NC(=O)/C=C/c2ccco2)c1,> 6.48 µM (inactive)
18,O=C(O)c1ccc(O)c(C=Nc2ccc(N=Cc3cc(C(=O)O)ccc3O)cc2)c1,> 6.48 µM (inactive)
19,CCOC(=O)C1C2NC(=S)N(CC)C1(C)Oc1ccc(Br)cc12 (stereo not drawn),> 6.31 µM (inactive)
20,NC(=O)COC(=O)/C=C/c1ccc(I)o1,> 7.27 µM (inactive)
21,COC(=O)CN1C(=O)S/C(=C/c2ccc([N+](=O)[O-])o2)C1=O,> 6.48 µM (inactive)
22,COC(=O)CCc1cc2c(C)cc(=O)oc2cc1OCc1ccc(C)cc1,> 6.48 µM (inactive)
23,O=C(NNC(=S)Nc1ccccc1)C(=O)NNC(=S)Nc1ccccc1,> 6.67 µM (inactive)
24,O=C(COC(=O)COc1ccc(Cl)cc1)NCc1ccco1,> 7.21 µM (inactive)

row,SMILES,IC50
1,O=C(/C=C/c1ccco1)NCC(=O)N/N=C/c1ccc(C(=O)O)cc1,> 6.48 µM (inactive)
2,CCOC(=O)N1CCN(C(=S)Nc2ccc(OCC)cc2)CC1,> 6.48 µM (inactive)
3,Cc1c(NC(=S)NC(=O)/C=C/c2ccco2)cccc1C(=O)O,3.78 µM
4,COc1ccc2c(c1)CC(c1nc(Nc3ccc4cnccc4c3)c3ccccc3n1)CO2 (stereo not drawn),> 6.48 µM (inactive)
5,CCC[C@@H]1NC(=O)[C@H]2CN(C(=O)NCc3ccccc3)CCN2C1=O,> 6.48 µM (inactive)
6,CN1C(=O)[C@H]2CN(C(=O)NC3CCCCC3)CCN2C(=O)[C@@H]1Cc1ccccc1,> 6.48 µM (inactive)
7,CC(C)C[C@H]1NC(=O)[C@H]2CN(C(=O)NC3CCCCC3)CCN2C1=O,> 6.48 µM (inactive)
8,CCOC(=O)C1C2NC(=S)N(c3ccc(CC)cc3)C1(C)Oc1c(OCC)cccc12 (stereo not drawn),> 5.53 µM (inactive)
9,O=C1c2c(O)cccc2Cc2cccc(O)c21,> 6.48 µM (inactive)
10,Cc1c(NC(=O)C(C)OC(=O)c2cc3c(s2)CCC3)c(=O)n(-c2ccccc2)n1C (stereo not drawn),> 6.7 µM (inactive)
11,CC(C)[C@H]1NC(=O)[C@H]2CN(C(=O)NC3CCCCC3)CCN2C1=O,> 6.48 µM (inactive)
12,CC[C@H](C)[C@@H]1NC(=O)[C@H]2CN(C(=O)NC3CCCCC3)CCN2C1=O,> 6.48 µM (inactive)
13,COc1ccc(OC)c(CN2CCN(Cc3ccc(F)cc3)CC2)c1,> 6.11 µM (inactive)
14,C=C1c2c(Cl)ccc(O)c2C(O)=C2C(=O)[C@]3(O)C(O)=C(C(N)=O)C(=O)[C@@H](N(C)C)[C@@H]3[C@@H](O)[C@H]12,2.58 µM
15,Cc1cc(O)c2c(c1)Cc1cccc(O)c1C2=O,> 6.48 µM (inactive)
16,O=Cc1cccn1-c1ccc(C(=O)O)cc1,> 6.48 µM (inactive)
17,CN(C)CCCNC(=O)c1cccc(CN(C(=O)c2nc3ccc(-c4cn[nH]c4)cc3s2)C2CC2)c1,> 6.48 µM (inactive)
18,O=c1[nH]cccc1-c1ccc(Nc2nccc(-c3ccc4nc(C5CC5)[nH]c(=O)c4c3)n2)cc1,> 6.48 µM (inactive)
19,O=C(Nc1ccc(N2CCOCC2)cc1)c1ccc2nc(-c3cccs3)sc2c1,> 7.76 µM (inactive)
20,N=C1S/C(=C\c2ccco2)C(=O)N1c1nonc1N,3.61 µM
21,CN1C(=O)[C@H]2CN(C(=O)NCc3ccccc3)CCN2C(=O)[C@@H]1Cc1ccccc1,> 6.48 µM (inactive)
22,O=C1N[C@@H](Cc2ccc(Cl)cc2)C(=O)N2CCN(C(=O)NCc3ccccc3)C[C@H]12,> 6.48 µM (inactive)
23,O=C1N[C@H](CO)C(=O)N2CCN(C(=O)NCc3ccccc3)C[C@H]12,> 6.48 µM (inactive)
24,CCC(C)c1ccccc1OCCNCCN(C)C (stereo not drawn),> 6.48 µM (inactive)

row,SMILES,IC50
1,Cc1nc(C)n(-c2ccc(Nc3cc(-n4cc(N(c5cccnc5)c5cccnc5)cn4)ccn3)cc2)n1,> 6.48 µM (inactive)
2,O=C(O)c1cc2ncc(-c3n[nH]c(-c4cnc5cc(C(=O)O)nn5c4)c3[N+](=O)[O-])cn2n1,> 6.48 µM (inactive)
3,COc1ccc2c3c(cccc13)C(=O)N(C)C2=O,> 6.48 µM (inactive)
4,CCc1ccc(CN2CCN(Cc3cc(OC)c(O)c(OC)c3)CC2)cc1,> 5.79 µM (inactive)
5,C=CCNCCOCCOc1ccc(OCC)cc1,> 6.48 µM (inactive)
6,O=C(OC1CCCC1=O)c1ccc(S(=O)(=O)N2CCCCC2)cc1 (stereo not drawn),> 6.64 µM (inactive)
7,O=C1N[C@@H](Cc2ccccc2)C(=O)N2CCN(C(=O)NC3CCCCC3)C[C@H]12,> 6.48 µM (inactive)
8,O=C(O)c1cccc2c1C(=O)N(c1ccccc1)C2,> 6.31 µM (inactive)
9,CC[C@H](C)[C@@H]1NC(=O)[C@H]2CN(C(=O)Nc3cccc(F)c3)CCN2C1=O,> 6.48 µM (inactive)
10,Cc1cncc2c(S(=O)(=O)N3CC[C@@H](NC(=O)C(O)c4ccc(F)cc4F)C3)cccc12 (stereo partly drawn),> 6.48 µM (inactive)
11,CCCOc1ccc(N)cc1N,> 6.22 µM (inactive)
12,CC1=NN(c2ccc(C(=O)O)c(N)c2)C(=O)C1,> 6.48 µM (inactive)
13,CCc1ccc(CN2CCN(C(C)C)CC2)cc1,> 6.89 µM (inactive)
14,OCCNc1cc(-c2cccs2)ncn1,> 6.01 µM (inactive)
15,CC(=O)NC1=NC(=O)/C(=C\c2ccc(Br)o2)S1,> 6.48 µM (inactive)
16,O=C(OC1(C(F)(F)F)C(=O)Nc2cc3c(cc21)OCO3)c1ccc(Cl)nc1 (stereo not drawn),3.84 µM
17,COCCCNC(=O)/C(C#N)=C/c1ccc(OCC(=O)O)c(OC)c1,> 6.48 µM (inactive)
18,COC(=O)CN(CCN(CC(=O)O)CC(=O)OC)CC(=O)O,> 5.37 µM (inactive)
19,O=C1O[C@H](C(O)CO)C(O)=C1O (stereo partly drawn),> 6.48 µM (inactive)
20,N#Cc1c(-c2ccc3c(c2)OCO3)nc(N2CCCCC2)[nH]c1=O,> 6.48 µM (inactive)
21,Cc1ccc(NC(=O)COC(=O)CCC(=O)Nc2sc3c(c2C(N)=O)CCC3)cc1F,> 6.95 µM (inactive)
